Counter-ions that a name gives are not always drawn.
Legend:
[1] = target: T1, BTK (Homo sapiens, UniProt Q06187); test: Cell Degradation: BTK degradation in TMD-8 cells, HTRF assay; assay type: cell-based; conditions: 6 h treatment, IC50 (DC50) of BTK degradation
T1 construct: High control=Cell group with added DMSO and without compound, indicating microplate readings without BTK degradation; endogenous in cells; host or cells: TMD-8 cells
In short: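 BTK levels read by HTRF (665 vs 620 nm) in lysates of TMD-8 cells after 6 h compound exposure (eight doses, 6-fold steps, 0.2% DMSO). Percent degradation relative to controls; four-parameter curve fitting gave DC50, with Dmax the top degradation.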

[2] = tested on: HEK-293 cells; test: HEK-293 Cytotoxicity Assay (CellTiter-Glo); assay type: cell-based; conditions: Homo sapiens, HEK293, 72 h incubation, CellTiter-Glo luminescence
In short: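 Four-parameter fit of % inhibition gives IC50, from CellTiter-Glo luminescent viability read-out. Cells exposed for 72 h to an 8-point, 4-fold series at 0.2% DMSO.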

T1 sequence (Q06187 whole entry): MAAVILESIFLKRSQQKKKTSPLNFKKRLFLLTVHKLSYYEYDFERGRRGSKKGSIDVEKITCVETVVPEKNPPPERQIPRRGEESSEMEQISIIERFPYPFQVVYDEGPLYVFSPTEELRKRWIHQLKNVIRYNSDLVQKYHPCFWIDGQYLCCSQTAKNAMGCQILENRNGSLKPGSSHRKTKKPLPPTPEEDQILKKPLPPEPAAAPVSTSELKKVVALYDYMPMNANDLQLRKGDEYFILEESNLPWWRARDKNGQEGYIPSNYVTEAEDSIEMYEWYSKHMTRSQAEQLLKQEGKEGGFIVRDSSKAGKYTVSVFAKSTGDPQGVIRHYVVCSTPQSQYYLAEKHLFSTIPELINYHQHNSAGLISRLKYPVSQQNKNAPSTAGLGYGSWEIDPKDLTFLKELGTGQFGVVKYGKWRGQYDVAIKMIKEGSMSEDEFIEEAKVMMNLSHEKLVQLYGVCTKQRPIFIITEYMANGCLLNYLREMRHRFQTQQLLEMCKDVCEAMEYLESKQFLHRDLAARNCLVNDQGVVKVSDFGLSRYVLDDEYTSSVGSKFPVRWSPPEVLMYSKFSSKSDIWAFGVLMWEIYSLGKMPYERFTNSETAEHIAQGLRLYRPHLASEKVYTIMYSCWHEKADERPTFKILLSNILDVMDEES

Structure (SMILES)	DC50 [1] [nM]	IC50 [2] [nM]
Cc1cc(N2CCC(CN3CCN(c4ccc(-c5cc6c(-c7ccc([C@@H](C)NC(=O)c8noc(C(C)(C)C)n8)c(CO)c7)ncnc6[nH]5)nc4)CC3)CC2)ccc1N1CCC(=O)NC1=O [Example 137, (R)-5-(tert-butyl)-N-(1-(4-(6-(5-(4-((1-(4-(2,4-dioxotetrahydropyrimidin-1(2H)-yl)-3-methylphenyl)piperidin-4-yl)methyl)piperazin-1-yl)pyridin-2-yl)-7H-pyrrolo[2,3-d]pyrimidin-4-yl)-2-(hydroxymethyl)phenyl)ethyl)-1,2,4-oxadiazole-3-carboxamide]	0.23	> 10000
Cc1cc(-c2ncnc3[nH]c(-c4ccc(N5CCN(CC6CCN(c7ccc(N8CCC(=O)NC8=O)cc7)CC6)CC5)nc4)c(F)c23)ccc1[C@@H](C)NC(=O)c1nc(C(C)(C)C)no1 [Example 142, (R)-3-(tert-butyl)-N-(1-(4-(6-(6-(4-((1-(4-(2,4-dioxotetrahydropyrimidin-1(2H)-yl)phenyl)piperidin-4-yl)methyl)piperazin-1-yl)pyridin-3-yl)-5-fluoro-7H-pyrrolo[2,3-d]pyrimidin-4-yl)-2-methylphenyl)ethyl)-1,2,4-oxadiazole-5-carboxamide]	2.99	> 10000
Cc1cc(-c2ncnc3[nH]c(-c4ccc(N5CCN(CC6CCN(c7ccc(-n8ccc(=O)[nH]c8=O)cc7)CC6)CC5)nc4)cc23)ccc1[C@@H](C)NC(=O)c1nc(C(C)(C)C)no1 [Example 187, (R)-3-(tert-butyl)-N-(1-(4-(6-(6-(4-((1-(4-(2,4-dioxo-3,4-dihydropyrimidin-1(2H)-yl)phenyl)piperidin-4-yl)methyl)piperazin-1-yl)pyridin-3-yl)-7H-pyrrolo[2,3-d]pyrimidin-4-yl)-2-methylphenyl)ethyl)-1,2,4-oxadiazole-5-carboxamide]	2.65	> 10000
Cc1cc(-c2ncnc3[nH]c(-c4ccc(N5CCN(CC6CCN(c7ccc(N8CCC(=O)NC8=O)cc7)CC6)CC5)c(F)c4)cc23)ccc1[C@@H](C)NC(=O)c1nc(C(C)(C)C)no1 [Example 38, (R)-3-(tert-butyl)-N-(1-(4-(6-(4-(4-((1-(4-(2,4-dioxotetrahydropyrimidin-1(2H)-yl)phenyl)piperidin-4-yl)methyl)piperazin-1-yl)-3-fluorophenyl)-7H-pyrrolo[2,3-d]pyrimidin-4-yl)-2-methylphenyl)ethyl)-1,2,4-oxadiazole-5-carboxamide, Formate]	2.1	> 10000
Cc1cc(-c2ncnc3[nH]c(-c4ccc(N5CCN(CC6CCN(c7ccc(C8CCC(=O)NC8=O)cc7)CC6)CC5)nc4)cc23)ccc1[C@@H](C)NC(=O)c1nc(C(C)(C)C)no1 (stereo partly drawn) [Example 48, 3-(tert-butyl)-N-((1R)-1-(4-(6-(6-(4-((1-(4-(2,6-dioxopiperidin-3-yl)phenyl)piperidin-4-yl)methyl)piperazin-1-yl)pyridin-3-yl)-7H-pyrrolo[2,3-d]pyrimidin-4-yl)-2-methylphenyl)ethyl)-1,2,4-oxadiazole-5-carboxamide]	1.7	> 10000
Cc1cc(-c2ncnc3[nH]c(-c4ccc(N5CCN(CC6CCN(c7ccc(N8CCC(=O)NC8=O)cc7)CC6)CC5)nc4)cc23)ccc1[C@@H](C)NC(=O)c1nc(C(C)(C)C)no1 [Example 14, (R)-3-(tert-butyl)-N-(1-(4-(6-(6-(4-((1-(4-(2,4-dioxotetrahydropyrimidin-1(2H)-yl)phenyl)piperidin-4-yl)methyl)piperazin-1-yl)pyridin-3-yl)-7H-pyrrolo[2,3-d]pyrimidin-4-yl)-2-methylphenyl)ethyl)-1,2,4-oxadiazole-5-carboxamide]	0.72	> 10000
